The test concerns Erysiphe [syn. Blumeria] graminis forma specialis. tritici. The experiment in a line: activity against mildew of wheat, 5 day protective application. The format is in vivo. Conditions: evaluated 7 days after inoculation, Abbot's formula. On the procedure:
1% by weight of the emulsifier Uniperol® EL (wetting agent having emulsifying and dispersant action based on ethoxylated alkylphenols) was added to this solution, and the mixture was diluted with water to the desired concentration.
Use example—activity against mildew of wheat caused by Erysiphe [syn. Blumeria] graminis forma specialis. tritici, 5 day protective application
Theor emulsion had been prepared as described above. […] The test plants were then placed in a greenhouse at temperatures between 20 and 24° C. and at 60 to 90% relative atmospheric humidity. After 7 days, the extent of mildew development was determined visually in % infection of the total leaf area
The visually determined percentages of infected leaf areas were converted into efficacies in % of the untreated control:
The efficacy (E) is calculated as follows using Abbot's formula: E=(1-α/β)·100 • α corresponds to the fungal infection of the treated plants in % and • β corresponds to the fungal infection of the untreated (control) plants in %
An efficacy of 0 means that the infection level of the treated plants corresponds to that of the untreated control plants; an efficacy of 100 means that the treated plants were not infected.

Setting [1] is: 12.5 ppm active compound in the spray liquor.

Data on two molecules can be found in patent US20070197557A1, “Fungicidal mixtures” (Basf Aktiengesellschaft, priority 2004, published 2007).

With `CC1CCN(c2c(-c3c(F)cc(F)cc3F)c(Cl)nc3ncnn23)CC1` [I, 5-chloro-7-(4-methylpiperidin-1-yl)-6-(2,4,6-trifluorophenyl)-[1,2,4]triazolo[1,5-a]pyrimidine], the “Efficacy in % of the untreated control” value reads like this: under setting [1], 9%; (50 ppm active compound in the spray liquor) 35%.

On to `CCCOc1nc2ccc(I)cc2c(=O)n1CCC` [II.1-1, proquinazid], for which the “Efficacy in % of the untreated control” value under setting [1] is listed as 67% and the “Efficacy in % of the untreated control” value (25 ppm active compound in the spray liquor) is 80%.
